Converted amounts (≈) assume the structure as drawn. The source made the active and inactive calls. The calls are words filed in the database; no cut-off is given here.
How the values were obtained:
[1] = tested on: Staphylococcus intermedius; test: Antibacterial activity against Staphylococcus intermedius isolate 1051997 after 24 hrs by broth microdilution method; type: functional; settings: isolate 1051997, 24 h
Staphylococcus aureus = test: Antibacterial activity against Staphylococcus aureus ATCC 25923 after 24 hrs by broth microdilution method; type: functional; settings: ATCC 25923, 24 h
Pseudomonas aeruginosa = test: Antibacterial activity against Pseudomonas aeruginosa ATCC 27853 after 24 hrs by broth microdilution method; type: functional
L6 = test: Cytotoxicity against rat L6 cells after 72 hrs by Alamar blue assay; type: cell-based; settings: L6, 72 h
[2] = Inhibition of recombinant human farnesyltransferase using dansyl-GCVLS as substrate in presence of farnesyl pyrophosphate after 15 mins by fluorescence assay
[3] = Inhibition of Trypanosoma brucei recombinant farnesyltransferase using dansyl peptide containing GCAIM as substrate in presence of farnesyl pyrophosphate after 15 mins by fluorescence assay
Plasmodium falciparum [4] = test: (§1) Antiplasmodial activity against chloroquine-sensitive IEF stage of Plasmodium falciparum NF54 infected in human RBC assessed as reduction in [3H]hypoxanthine incorporation preincubated for 48 hrs followed by [3H]hypoxanthine addition measured after 24 hrs by liquid scintillation counting method; type: functional
Escherichia coli = test: Antibacterial activity against Escherichia coli ATCC 25922 after 24 hrs by broth microdilution method; type: functional
[5] = Selectivity index, ratio of IC50 for rat L6 cells to IC50 for chloroquine-sensitive IEF stage of Plasmodium falciparum NF54 infected in human RBC; type: toxicity; settings: read-out: Ratio IC50
Plasmodium falciparum [6] = test: as §1, with “chloroquine-resistant erythrocyte” for “chloroquine-sensitive IEF”, “FcM29-Cameroon” for “NF54”; type: functional

Compound	MIC [1]	MIC (Staphylococcus aureus)	IC50 [2]	IC50 [3]	IC50 (Plasmodium falciparum [4])	Activity (Pseudomonas aeruginosa)	IC50 (L6; read-out: IC50)	Activity (Escherichia coli)	IC50 (L6)	selectivity ratio [5]	IC50 (Plasmodium falciparum [6])
CC(C)=CCC/C(C)=C/CC/C(C)=C/Cc1cc(O)cc2c1OC(/C=C(\C)CC/C=C(\C)CCC=C(C)C)C1=C2C(=O)C2=C(C1=O)S(=O)(=O)CCN2 (stereo not drawn)	> 200 µM	> 200 µM	0.17 µM	0.35 µM	4 µM	inactive	30.6 µM	inactive	–	–	–
CC(C)=CCC/C(C)=C/CC/C(C)=C/Cc1cc(O)cc2c1OC(/C=C(\C)CC/C=C(\C)CCC=C(C)C)C1=C2C(=O)C2=C(NCCS2(=O)=O)C1=O (stereo not drawn)	> 200 µM	> 200 µM	1.5 µM	2.9 µM	2.9 µM	inactive	16.7 µM	inactive	–	–	–
CN[C@@H]1[C@H](O[C@H]2[C@H](O[C@H]3[C@H](O)[C@@H](O)[C@H](N=C(N)N)[C@@H](O)[C@@H]3N=C(N)N)O[C@@H](C)[C@]2(O)C=O)O[C@@H](CO)[C@H](O)[C@H]1O [STREPTOMYCIN]	10.7 µM (≈ 6.22 µg/mL)	21.5 µM (≈ 12.5 µg/mL)	–	–	–	–	–	–	–	–	–
COc1cc([C@@H]2c3cc4c(cc3[C@H](O)[C@H]3COC(=O)[C@H]23)OCO4)cc(OC)c1OC [PODOFILOX]	–	–	–	–	–	–	–	–	0.012 µM	–	–
CC(C)=CCC/C(C)=C/CC/C(C)=C/Cc1cc2c(cc1O)C1=C(C(=O)C3=C(NCCS3(=O)=O)C1=O)C(/C=C(\C)CC/C=C(\C)CCC=C(C)C)O2 (stereo not drawn)	> 200 µM	> 200 µM	0.45 µM	1 µM	3.4 µM	inactive	25.8 µM	inactive	–	–	–
CC(C)=CCC/C(C)=C/CC/C(C)=C/Cc1cc2c(cc1O)C1=C(C(=O)C3=C(C1=O)S(=O)(=O)CCN3)C(/C=C(\C)CC/C=C(\C)CCC=C(C)C)O2 (stereo not drawn)	> 200 µM	> 200 µM	4.7 µM	5.2 µM	7.4 µM	inactive	126 µM	inactive	–	17	–
CC(C)=CCC/C(C)=C/Cc1cc(O)cc2c1OC(/C=C(\C)CCC=C(C)C)C1=C2C(=O)C2=C(NCCS2(=O)=O)C1=O (stereo not drawn)	> 200 µM	> 200 µM	0.14 µM	0.22 µM	–	inactive	–	inactive	–	–	4.56 µM
CC(C)=CCC/C(C)=C/Cc1cc2c(cc1O)C1=C(C(=O)C3=C(NCCS3(=O)=O)C1=O)C(/C=C(\C)CCC=C(C)C)O2 (stereo not drawn)	> 200 µM	> 200 µM	1.22 µM	3.04 µM	–	inactive	–	inactive	–	–	> 17 µM
CC(C)=CCC/C(C)=C/Cc1cc(O)cc2c1OC(/C=C(\C)CCC=C(C)C)C1=C2C(=O)C2=C(C1=O)S(=O)(=O)CCN2 (stereo not drawn)	> 200 µM	> 200 µM	0.78 µM	0.74 µM	–	inactive	–	inactive	–	–	> 17 µM
CC(C)=CCC/C(C)=C/Cc1cc2c(cc1O)C1=C(C(=O)C3=C(C1=O)S(=O)(=O)CCN3)C(/C=C(\C)CCC=C(C)C)O2 (stereo not drawn)	> 200 µM	> 200 µM	0.054 µM	0.098 µM	–	inactive	–	inactive	–	–	4.39 µM

The next lines start with results.

MIC [1]	MIC (Staphylococcus aureus)	IC50 [2]	IC50 [3]	IC50 (Plasmodium falciparum [4])	Compound	Activity (Pseudomonas aeruginosa)	IC50 (L6; read-out: IC50)	Activity (Escherichia coli)	IC50 (L6)	selectivity ratio [5]	IC50 (Plasmodium falciparum [6])
3 to 6 µM (≈ 0.969 to 1.94 µg/mL)	1.5 to 3 µM (≈ 0.485 to 0.969 µg/mL)	–	–	–	O=C(N[C@H](CO)[C@H](O)c1ccc([N+](=O)[O-])cc1)C(Cl)Cl [CHLORAMPHENICOL]	–	–	–	–	–	–
> 200 µM	> 200 µM	3.1 µM	2.3 µM	0.29 µM	CC(C)=CCc1cc2c(cc1O)C1=C(C(=O)C3=C(C1=O)S(=O)(=O)CCN3)C(C=C(C)C)O2 (stereo not drawn)	inactive	0.4 µM	inactive	–	–	–
–	–	–	0.01 µM	–	CSCC[C@H](NC(=O)c1ccc(NC[C@@H](N)CS)cc1-c1ccccc1)C(=O)O	–	–	–	–	–	–
> 200 µM	> 200 µM	17.3 µM	> 22 µM	8 µM	CC(C)=CCc1cc(O)cc2c1OC(C=C(C)C)C1=C2C(=O)C2=C(C1=O)S(=O)(=O)CCN2 (stereo not drawn)	inactive	12.8 µM	inactive	–	–	–
> 200 µM	> 200 µM	14.7 µM	19.6 µM	2 µM	CC(C)=CCc1cc(O)cc2c1OC(C=C(C)C)C1=C2C(=O)C2=C(NCCS2(=O)=O)C1=O (stereo not drawn)	inactive	4.2 µM	inactive	–	–	–
> 200 µM	> 200 µM	> 22 µM	> 22 µM	4.8 µM	CC(C)=CCc1cc2c(cc1O)C1=C(C(=O)C3=C(NCCS3(=O)=O)C1=O)C(C=C(C)C)O2 (stereo not drawn)	inactive	5.2 µM	inactive	–	–	–
50 µM (≈ 22.4 µg/mL)	25 µM (≈ 11.2 µg/mL)	> 22.3 µM	> 22.3 µM	20.4 µM	COC1=CC(=O)C2=C(C1=O)c1cc(O)ccc1OC2/C=C(\C)CC/C=C(\C)CCC=C(C)C (stereo not drawn)	inactive	34.3 µM	inactive	–	–	–
> 200 µM	> 200 µM	1 µM	1.6 µM	33.9 µM	CC(C)=CCC/C(C)=C/CC/C(C)=C/C1Oc2c(cc(O)c3c2-c2cc(O)ccc2OC3/C=C(\C)CC/C=C(\C)CCC=C(C)C)C2=C1C(=O)C=CC2=O (stereo not drawn)	inactive	53.2 µM	inactive	–	–	–
3.12 µM (≈ 1.31 µg/mL)	6.25 µM (≈ 2.62 µg/mL)	1.7 µM	3.3 µM	7.2 µM	CC(C)=CCC/C(C)=C/CC/C(C)=C/C1Oc2ccc(O)cc2C2=C1C(=O)C=CC2=O (stereo not drawn)	inactive	23.5 µM	inactive	–	–	–

Source: ChEMBL document CHEMBL4052727, “Structure-activity relationship studies on thiaplidiaquinones A and B as novel inhibitors of Plasmodium falciparum and farnesyltransferase” (Bioorg Med Chem, 2017)
